This is an account of results in patent US20250152750A1 (Cancer Research Technology Limited, priority 2022, published 2025).

Assay [1] relates to senescent cells (multiple models of senescence). The assay is described as follows: Flow cytometry accumulation in control and senescent cells. Type of assay: cell-based, human. The note with it: 12-16 hours exposure. On the procedure: LSR Fortessa (BD-Becton Dickinson) was used for flow cytometry analysis. For cyanine dye nanoparticle and small molecule studies, 6 well plates were used and seeded 200,000 cells per well. […] After this, cells were trypsinised and re-suspended in PBS buffer with 2% FBS. At least 10,000 live events were collected for each condition. DAPI (Sigma) was added to exclude dead cells. The analysis of all flow cytometry data was performed using FlowJo v10 (Treestar, OR). Unstained control and senescent cells were used as reference for each independent experiment. For ICG the 640 nm laser was used with an emission window of 750-810 nm. For the cyanine dye nanoparticle, the 640 nm laser was used with an emission window of 708-753 nm.
Background: A flow cytometer gives signals particle by particle.

The next assay concerns SK-MEL-103 xenografts. As to the kind of experiment: Ex vivo IVIS fluorescence imaging of untreated and Palbociclib treated xenografts. The format is in vivo, mice. The following applies: 200 μL of 1 mg/mL tail vein, 6 h, p=0.0438. How it is done: All mice were treated in strict accordance with the local ethical committee (University of Cambridge License Review Committee) and the UK Home Office guidelines. Tumour xenografts were established using SK-MEL-103. Cells were trypsinised, counted with a haemocytometer, and injected subcutaneously (10^6 cells in a volume of 100 μL per dorsolateral flank) in 8- to 10-week-old athymic nude female mice (Crl:NU(NCr)-Foxn1^nu) purchased from Charles River Laboratories. Tumour volume was measured every 2 days with a caliper and calculated as V=(a×b 2)/2 where a is the longer and b is the shorter of two perpendicular diameters. […]
An IVIS Spectrum Imaging System (Perkin Elmer Inc) was used for ex vivo fluorescence imaging. For ex vivo imaging, mice were sacrificed by cervical dislocation and organs and tumour xenografts were analysed immediately after harvesting. ICG was detected using an excitation wavelength of 710-740 nm and emission bandpass from 810-830 nm. […] Fluorescence imaging quantification was performed by Living Image 3.2 software (Perkin Elmer Inc). […] Fluorescence activity is measured in photons per second per square centimetre per steradian (p/s/cm^2/sr). […]
See Examples—part A. Fluorescence activity is measured as average Radiant Efficiency with the equation of [p/s/cm2/sr]/[μW/cm2].

The test system of assay [2] is uptake of cyanine dye nanoparticles in control and senescent cells. As to the kind of experiment: Endocytosis analysis by confocal microscopy with endocytosis pathway inhibitors. The following applies: inhibitor 1 h before nanoparticles, 12-16 h. The format is cell-based. On the procedure:
Cells were trypsinized and seeded in flat-bottom μ-clear 96-well plates (Greiner Bio-One, #655087) at a density of 3,500-5,000 control and 4,000-6,000 senescent cells/well. Once the cells were attached, culture medium was changed to DMEM without FBS and exposed to a number of different inhibitors for 1 h. […] The cells were washed 3x with PBS for 5 min. Specific organelle stain LysoTracker Green DND-26 (Cell Signaling Technology, FM8783) was used according to the manufacturers protocol. For nuclei staining, Hoechst at 0.1 μg/mL in PBS was added 10 min prior to analysis.

“Also recorded” adds a separate entry of the source.

For the compound `CC1(C)C(/C=C/C=C/C=C/C=C2\N(CCCCS(=O)(=O)O)c3ccc4ccccc4c3C2(C)C)=[N+](CCCCS(=O)(=O)[O-])c2ccc3ccccc3c21` [ICG, indocyanine green], the “accumulation in senescent cells compared to controls” value in assay [1] is given as “accumulation of ICG”. Further, the “ICG emission in untreated (control) vs Palbociclib treated tumours” value in the assay on SK-MEL-103 xenografts is on record as “accumulation in untreated tumours as opposed to senescent tumours; also recorded: significantly higher signal in the control tumours”. On to `O=C1NC(=NS(=O)(=O)c2cccc3ccccc23)S/C1=C\c1ccc(Br)cc1` [Pitstop 2], for which the “effect of inhibitor on uptake of cyanine dye nanoparticles” value (from here on “effect of inhibitor”) in assay [2] was “significant inhibition; also recorded: significant inhibitor of endocytosis”. For `CCN(CC)CCCC(C)Nc1ccnc2cc(Cl)ccc12` (centres unmarked) [chloroquine], the “effect of inhibitor” value was “significantly enhances” in assay [2] and “more dramatic increase” in assay [2] (listed as Chloroquine). As for `O=C(N/N=C/c1cc(O)c(O)cc1O)c1cc2ccccc2cc1O` [dynago4a], the figures for the “effect of inhibitor” value in assay [2] and in assay [2] (listed as dyngo4a) were “significantly inhibited” and “significant inhibition”, respectively.

For `CN1CCN(CCCN2c3ccccc3Sc3ccc(Cl)cc32)CC1` [prochloroperazine], the “effect of inhibitor” value in assay [2] is “not inhibited”.
